What was measured:
Assay type in all cases: physicochemical
[1] = Absorption spectra (absorption maxima) of dyes in organic solvents
Description: (§1) All commercially available compounds were purchased from Aldrich Chemical Co., GFS Chemicals, Strem Chemicals, Acros Organics, Alfa Aesar, and Advanced Chemtech and used as received, except for p-toluenesulfonyl hydrazide, which was recrystallized from methanol. Amines were purchased from Aldrich Chemical Co. as purified by redistillation and used as received. Tetrahydrofuran (THF), diethyl ether (Et2O), and dichloromethane (CH2Cl2) were purified by passing through alumina using the Sol-Tek ST-002 solvent purification system. Acetonitrile (MeCN) and toluene were freshly distilled from CaH2 prior to use. Benzene was freshly distilled from sodium/benzophenone prior to use Anhydrous N,N-dimethylformamide (DMF), 1,2-dichloroethane (DCE), and 1,4-dioxane were purchased and used as received from Aldrich Chemical Co. Purification of the compounds by flash column chromatography was performed using silica gel (32-63 μm particle size, 60 Å pore size) purchased from Silicycle, or by using a Biotage Horizon flash purification system with either Biotage SNAP KP-SIL silica cartridges, or Teledyne ISCO RediSep Rf normal phase disposable flash columns (40-60 micron). TLC analyses were performed on EMD Chemicals Silica Gel 60 F254 glass plates (250 μm thickness). ^1H NMR and ^13C NMR spectra were recorded on Bruker Avance 300 MHz, 500 MHz, or 600 MHz spectrometers. Spectra were referenced to residual chloroform (7.27 ppm, ^1H, 77.0 ppm, ^13C) or 1,2-dichlorobenzene (6.93 ppm, ^1H, 127.19 ppm, ^13C). Chemical shifts are reported in ppm, multiplicities are indicated by s (singlet), d (doublet), t (triplet), q (quartet), p (pentet), and m (multiplet). Coupling constants, J, are reported in hertz (Hz). All NMR spectra were obtained at room temperature unless otherwise specified. IR spectra were obtained using a Nicolet Avatar E.S.P. 360 FT-IR. EI mass spectroscopy was performed on a Waters Micromass GCT high resolution mass spectrometer. ES mass spectroscopy was performed on a Waters Q-TOF Ultima API, Micromass UK Limited high resolution mass spectrometer. GC mass spectrometry was performed on a Shimadzu GCMS-17A/QP5050A spectrometer. All microwave-mediated reactions were carried out using a Biotage Initiator™ Exp microwave synthesizer. The microwave parameters were set to variable power, constant temperature, with the fixed hold time set to on. The microwave reactions were carried out in 0.2-0.5 mL, 0.5-2 mL, 2-5 mL, or 10-20 mL Biotage microwave vials. […] Absorption and fluorescence spectra were recorded on Lambda 9 spectrophotometer (Perkin Elmer) and FluoroMax-3 spectrofluorometer (Jobin Yvon, Horiba), respectively. Fluorescence quantum yields were determined by taking Prodan in DMSO (quantum yield, QY=91%) as a reference. The quantum yield values were corrected for the solvent refractive index. For spectroscopic measurements, 10^−5 M solutions of dyes in 10 mm quartz-cuvettes were used (excitation wavelength was 334 nm; slits open to 2 nm).

[2] = Fluorescence emission spectra (emission maxima, Stokes and bathochromic shifts); details: for Bathochromic shift: across Toluene, CH2Cl2, DMSO (Table 3)
Description: as §1

[3] = Fluorescence quantum yield vs Prodan in DMSO as reference; details: for QY (fluorescence quantum yield vs Prodan in DMSO (91%)): excitation 334 nm, 10^-5 M
Description: as §1

Work on “1-(6-(Dimethylamino)-2,3-dihydro-1H-cyclopenta[b]naphthalen-4-yl)ethanone [Compound 10]” yielded an absorption maximum ([1]; in DCM) of 324 nm, a Stokes shift ([2]; in DCM) of 207 nm and an emission maximum ([2]; in dichloromethane (DCM)) of 531 nm.
With “1-(8-(dimethylamino)-2,3-dihydro-1H-cyclopenta[b]naphthalen-4-yl)ethanone [Compound 12]” the “absorption and emission maxima compared with fluorophore 102a” value ([2]; in DCM) was “comparable to those observed for fluorophore 102a”.
For `CC(=O)c1c2c(cc3c(N(C)C)cccc13)CC(CO)(CO)C2` [7a], the emission maximum ([2]; in dichloromethane (DCM)) was 567 nm.
With `CN(C)c1cccc2c(C(=O)C(C)(C)C)c3c(cc12)CC(CO)(CO)C3` [7b] the “λabs (absorption maxima)” value ([1]; CH2Cl2 (Table 3)) was 320 nm, the “λabs (absorption maxima)” value ([1]; DMSO (Table 3)) was 320 nm and the “λabs (absorption maxima)” value ([1]; Toluene (Table 3)) was 318 nm. For the same molecule, the “SS (Stokes shift)” value ([2]; CH2Cl2 (Table 3)) was 210 nm, the “λem (emission maxima)” value ([2]; CH2Cl2 (Table 3)) was 530 nm and the “SS (Stokes shift)” value ([2]; DMSO (Table 3)) was 241 nm. The “λem (emission maxima)” value ([2]; DMSO (Table 3)) was 561 nm, the “SS (Stokes shift)” value ([2]; Toluene (Table 3)) was 175 nm and the “λem (emission maxima)” value ([2]; Toluene (Table 3)) was 493 nm. It also gave a Bathochromic shift [2] of 68 nm.
In the case of `CN(C)c1ccc2cc3c(c(-c4ccc(CO)cc4)c2c1)C(=O)CC3` [15b], the “λabs (absorption maxima)” value ([1]; CH2Cl2 (Table 3)) is reported as 427 nm, the “λabs (absorption maxima)” value ([1]; DMSO (Table 3)) is reported as 427 nm and the “λabs (absorption maxima)” value ([1]; Toluene (Table 3)) is reported as 424 nm. For the same molecule, the “SS (Stokes shift)” value ([2]; CH2Cl2 (Table 3)) was 110 nm, the “λem (emission maxima)” value ([2]; CH2Cl2 (Table 3)) was 537 nm and the “SS (Stokes shift)” value ([2]; DMSO (Table 3)) was 147 nm. The “λem (emission maxima)” value ([2]; DMSO (Table 3)) was 574 nm, the “SS (Stokes shift)” value ([2]; Toluene (Table 3)) was 80 nm and the “λem (emission maxima)” value ([2]; Toluene (Table 3)) was 504 nm. For the same molecule, the Bathochromic shift [2] was 70 nm.
In the case of `CC(=O)c1c2c(cc3ccccc13)CCC2` [Compound 6a, 1-(2,3-Dihydro-1H-cyclopenta[b]naphthalen-4-yl)ethanone], the emission maximum ([2]; in dichloromethane (DCM)) is reported as 566 nm.
For `CC(=O)c1c2c(cc3ccc(Cl)cc13)CCC2` [Compound 6b, 1-(6-Chloro-2,3-dihydro-1H-cyclopenta[b]naphthalen-4-yl)ethanone], the emission maximum ([2]; in dichloromethane (DCM)) was 527 nm.
`CC(=O)c1c2c(cc3c(Cl)cccc13)CCC2` [Compound 6c, 1-(8-Chloro-2,3-dihydro-1H-cyclopenta[b]naphthalen-4-yl)ethanone] gave an emission maximum ([2]; in dichloromethane (DCM)) of 564 nm.
Work on `CC(=O)c1c2c(cc3cc(Cl)ccc13)CCC2` [Compound 6d, 1-(7-chloro-2,3-dihydro-1H-cyclopenta[b]naphthalen-4-yl)ethanone] yielded an emission maximum ([2]; in dichloromethane (DCM)) of 581 nm.
With `CC(=O)c1c2c(cc3ccc(N(C)C)cc13)CCC2` [Compound 10, 1-(6-(Dimethylamino)-2,3-dihydro-1H-cyclopenta[b]naphthalen-4-yl)ethanone] the “λabs (maximum absorption)” value ([1]; 1,4-Dioxane) was 376 nm, the “λabs (maximum absorption)” value ([1]; Acetonitrile) was 375 nm and the “λabs (maximum absorption)” value ([1]; CH2Cl2) was 377 nm. For the same molecule, the “λabs (maximum absorption)” value ([1]; CHCl3) was 377 nm, the “λabs (maximum absorption)” value ([1]; Cyclohexane) was 373 nm and the “λabs (maximum absorption)” value ([1]; DMSO) was 377 nm. For the same molecule, the “λabs (maximum absorption)” value ([1]; EtOH) was 377 nm, the “λabs (maximum absorption)” value ([1]; THF) was 377 nm and the “λabs (maximum absorption)” value ([1]; Toluene) was 376 nm. The absorption maxima ([1]; dichloroethane) was 377 nm, the absorption maximum ([1]; in methylene chloride) was about 375 nm and the “λem (maximum emission)” value ([2]; 1,4-Dioxane) was 495 nm. The “λem (maximum emission)” value ([2]; Acetonitrile) was 529 nm, the “λem (maximum emission)” value ([2]; CH2Cl2) was 510 nm and the “λem (maximum emission)” value ([2]; CHCl3) was 516 nm. The “λem (maximum emission)” value ([2]; Cyclohexane) was 466 nm, the “λem (maximum emission)” value ([2]; DMSO) was 536 nm and the “λem (maximum emission)” value ([2]; EtOH) was 578 nm. The “λem (maximum emission)” value ([2]; THF) was 497 nm, the “λem (maximum emission)” value ([2]; Toluene) was 490 nm and the emission maximum ([2]; in methylene chloride) was about 510 nm. The “QY (fluorescence quantum yield vs Prodan in DMSO (91%))” value ([3]; 1,4-Dioxane) was 46%, the “QY (fluorescence quantum yield vs Prodan in DMSO (91%))” value ([3]; Acetonitrile) was 99% and the “QY (fluorescence quantum yield vs Prodan in DMSO (91%))” value ([3]; CH2Cl2) was 99%. For the same molecule, the “QY (fluorescence quantum yield vs Prodan in DMSO (91%))” value ([3]; CHCl3) was 77%, the “QY (fluorescence quantum yield vs Prodan in DMSO (91%))” value ([3]; Cyclohexane) was 45% and the “QY (fluorescence quantum yield vs Prodan in DMSO (91%))” value ([3]; DMSO) was 85%. For the same molecule, the “QY (fluorescence quantum yield vs Prodan in DMSO (91%))” value ([3]; EtOH) was 5%, the “QY (fluorescence quantum yield vs Prodan in DMSO (91%))” value ([3]; THF) was 75% and the “QY (fluorescence quantum yield vs Prodan in DMSO (91%))” value ([3]; Toluene) was 62%. It also gave a quantum yield ([3]; in dichloroethane) of 99%.
With `CC(=O)c1c2c(cc3cc(N(C)C)ccc13)CCC2` [Compound 11, 1-(7-(dimethylamino)-2,3-dihydro-1H-cyclopenta[b]naphthalen-4-yl)ethanone] the “λabs (maximum absorption)” value ([1]; Acetonitrile) was 370 nm, the “λabs (maximum absorption)” value ([1]; CH2Cl2) was 372 nm and the “λabs (maximum absorption)” value ([1]; CHCl3) was 373 nm. The “λabs (maximum absorption)” value ([1]; Cyclohexane) was 363 nm, the “λabs (maximum absorption)” value ([1]; DMSO) was 374 nm and the “λabs (maximum absorption)” value ([1]; EtOH) was 374 nm. For the same molecule, the “λabs (maximum absorption)” value ([1]; THF) was 370 nm, the “λabs (maximum absorption)” value ([1]; Toluene) was 368 nm and the absorption maximum ([1]; in methylene chloride) was about 375 nm. For the same molecule, the “λem (maximum emission)” value ([2]; Acetonitrile) was 545 nm, the “λem (maximum emission)” value ([2]; CH2Cl2) was 509 nm and the “λem (maximum emission)” value ([2]; CHCl3) was 514 nm. The “λem (maximum emission)” value ([2]; Cyclohexane) was 445 nm, the “λem (maximum emission)” value ([2]; DMSO) was 558 nm and the “λem (maximum emission)” value ([2]; EtOH) was 605 nm. The “λem (maximum emission)” value ([2]; THF) was 505 nm, the “λem (maximum emission)” value ([2]; Toluene) was 481 nm and the emission maximum ([2]; in methylene chloride) was about 510 nm. The “QY (fluorescence quantum yield vs Prodan in DMSO (91%))” value ([3]; Acetonitrile) was 18%, the “QY (fluorescence quantum yield vs Prodan in DMSO (91%))” value ([3]; CH2Cl2) was 82% and the “QY (fluorescence quantum yield vs Prodan in DMSO (91%))” value ([3]; CHCl3) was 41%. The “QY (fluorescence quantum yield vs Prodan in DMSO (91%))” value ([3]; Cyclohexane) was 8%, the “QY (fluorescence quantum yield vs Prodan in DMSO (91%))” value ([3]; DMSO) was 37% and the “QY (fluorescence quantum yield vs Prodan in DMSO (91%))” value ([3]; EtOH) was 3%. The “QY (fluorescence quantum yield vs Prodan in DMSO (91%))” value ([3]; THF) was 34% and the “QY (fluorescence quantum yield vs Prodan in DMSO (91%))” value ([3]; Toluene) was 25%.
In the case of `CC(=O)c1c2c(cc3ccc(N4CCCC4)cc13)CCC2` [Compound 13, 1-(6-(pyrrolidin-1-yl)-2,3-dihydro-1H-cyclopenta[b]naphthalen-4-yl)ethanone], the “λabs (absorption maxima)” value ([1]; CH2Cl2 (Table 3)) is reported as 325 nm, the “λabs (absorption maxima)” value ([1]; DMSO (Table 3)) is reported as 327 nm and the “λabs (absorption maxima)” value ([1]; Toluene (Table 3)) is reported as 320 nm. For the same molecule, the “SS (Stokes shift)” value ([2]; CH2Cl2 (Table 3)) was 243 nm, the “λem (emission maxima)” value ([2]; CH2Cl2 (Table 3)) was 568 nm and the “SS (Stokes shift)” value ([2]; DMSO (Table 3)) was 271 nm. For the same molecule, the “λem (emission maxima)” value ([2]; DMSO (Table 3)) was 598 nm, the “SS (Stokes shift)” value ([2]; Toluene (Table 3)) was 206 nm and the “λem (emission maxima)” value ([2]; Toluene (Table 3)) was 526 nm. The Bathochromic shift [2] was 72 nm and the “absorption and emission maxima compared with fluorophore 102a” value ([2]; in DCM) was “comparable to those observed for fluorophore 102a”.

From patent publication US9896479B2, “Functionalized naphthalene fluorophores” (Kay M. Brummond, priority 2012, dated 2018)
